Measurements as given in patent publication US5747535A, “Selective thrombin inhibitors” (priority 1995, dated 1998).

biological target: bovine thrombin (Bos taurus, UniProt P00735); test: biochemical; conditions: not given;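 further: bovine thrombin cleaving the chromogenic substrate Chromozym TH, with para-nitroaniline release tracked as absorbance change over time to give initial rates, in Tris buffer at pH 7.8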

Structure (SMILES) | Ki [nM]
CNC(=N)c1ccc(C[C@H](NS(=O)(=O)c2ccc3ccccc3c2)C(=O)N(C)C2CCCC2)cc1 [Example 7, (S)-N-cyclopentyl-N-methyl-3-[4-(methylamidino)phenyl]-2-(2-naphthylsulfonylamino)propionamide] | 13.8
CN(C)C(=O)[C@H](Cc1ccc(C(=N)NN)cc1)NS(=O)(=O)c1ccc2ccccc2c1 [Example 13, (S)-N,N-dimethyl-3-(4-amidrazonophenyl)-2-(2-naphthylsulfonylamino)propionamide] | 216
CN(C(=O)[C@H](Cc1ccc(C(=N)NN)cc1)NC(=O)Cc1cccc2ccccc12)C1CCCC1 [Example 17, (S)-3-[4-(amidrazono)-phenyl]-N-cyclopentyl-N-methyl-2-(2-naphthalen-1-yl-acetylamino)-propionamide] | 16
COC(=O)[C@H](C)N(C)C(=O)[C@H](Cc1ccc(C(=N)NN)cc1)NS(=O)(=O)c1ccc2ccccc2c1 [Example 27, (S)-2-{[3-(4-amidrazono-phenyl)-(S)-2-(naphthalene-2-sulfonylamino)-propionyl]-methyl-amino}propionic acid methyl ester] | 65
COC(=O)[C@@H](C(C)C)N(C)C(=O)[C@H](Cc1ccc(C(=N)NN)cc1)NS(=O)(=O)c1ccc2ccccc2c1 [Example 31, (R)-2-{[3-(4-amidrazono-phenyl)-(S)-2-(naphthalene-2-sulfonylamino)-propionyl]-methyl-amino}-3-methyl-butyric acid methyl ester] | 165
COC(=O)CCN(C)C(=O)[C@H](Cc1ccc(C(=N)NN)cc1)NS(=O)(=O)c1ccc2ccccc2c1 [Example 33, 3-{[3-(4-amidrazono-phenyl)-(S)-2-(naphthalene-2-sulfonylamino)-propionyl]-methylamino}-propionic acid methyl ester] | 35
CCCCN(CC(=O)OC)C(=O)[C@H](Cc1ccc(C(=N)NN)cc1)NS(=O)(=O)c1ccc2ccccc2c1 [Example 39, {[3-(4-amidrazono-phenyl)-(S)-2-(naphthalene-2-sulfonylamino)-propionyl]-butylamino}-acetic acid methyl ester] | 165
CCOC(=O)C1CCCC1N(C)C(=O)[C@H](Cc1ccc(C(=N)NN)cc1)NS(=O)(=O)c1ccc2ccccc2c1 (stereo partly drawn) [Example 45, 2-{[3-(4-amidrazono-phenyl)-(S)-2-(naphthalene-2-sulfonylamino)-propionyl]-methylamino}-cyclopentane carboxylic acid ethyl ester] | 346
CN(C(=O)[C@H](Cc1ccc(C(=N)NN)cc1)NS(=O)(=O)c1ccc2ccccc2c1)C1CCCC1C(=O)O (stereo partly drawn) [Example 46, 2-{[3-(4-amidrazono-phenyl)-(S)-2-(naphthalene-2-sulfonylamino)-propionyl]-methylamino}-cyclopentane carboxylic acid] | 880
COC(=O)[C@H](C(C)C)N(C)C(=O)[C@H](Cc1ccc(C(=N)NN)cc1)NS(=O)(=O)c1ccc2ccccc2c1 [Example 47, (S)-2-{[3-(4-amidrazono-phenyl)-(S)-2-(naphthalene-2-sulfonylamino)-propionyl]-methylamino}-3-methyl-butyric acid methyl ester] | 665
N=C(NN)c1ccc(C[C@H](NS(=O)(=O)c2ccc3ccccc3c2)C(=O)N2CCCC[C@@H]2C(=O)O)cc1 [Example 49, 1-[3-(4-amidrazono-phenyl)-(S)-2-(naphthalene-2-sulfonylamino)-propionyl]-piperidine-(R)-2-carboxylic acid] | 406
CCOC(=O)N1CCN(C(=O)[C@H](Cc2ccc(C(=N)NN)cc2)NS(=O)(=O)c2ccc3ccccc3c2)CC1 [Example 51, (S)-naphthalene-2-sulfonic acid [1-(4-amidrazono)benzyl-2-oxo-2-(4-ethoxycarbonyl-piperazinyl)-ethyl]amide] | 3300
N=C(NN)c1ccc(C[C@H](NS(=O)(=O)c2ccc3ccccc3c2)C(=O)N2CCN(C=O)CC2)cc1 [Example 52, (S)-naphthalene-2-sulfonic acid [1-(4-amidrazono)benzyl-2-(4-formyl-piperazinyl)-2-oxoethyl]amide] | 50
CCN1CCN(C(=O)[C@H](Cc2ccc(C(=N)NN)cc2)NS(=O)(=O)c2ccc3ccccc3c2)CC1 [Example 53, (S)-naphthalene-2-sulfonic acid [1-(4-amidrazono)benzyl-2-(4-ethyl-piperazinyl)-2-oxoethyl]amide] | 530
N=C(NN)c1ccc(C[C@H](NS(=O)(=O)c2ccc3ccccc3c2)C(=O)N2CCN(c3ccccc3)CC2)cc1 [Example 54, (S)-naphthalene-2-sulfonic acid [1-(4-amidrazono)benzyl-2-oxo-2-(4-phenyl-piperazinyl)-ethyl]amide] | 5380
N=C(NN)c1ccc(C[C@H](NS(=O)(=O)c2ccc3ccccc3c2)C(=O)N2CCN(c3cccc(C(F)(F)F)c3)CC2)cc1 [Example 55, (S)-naphthalene-2-sulfonic acid [1-(4-amidrazono)-benzyl-2-oxo-2-[-4-(3-trifluoromethyl-phenyl)-piperazinyl]-ethyl]-amide] | 10000
CC(=O)N1CCN(C(=O)[C@H](Cc2ccc(C(=N)NN)cc2)NS(=O)(=O)c2ccc3ccccc3c2)CC1 [Example 56, (S)-naphthalene-2-sulfonic acid [2-(4-acetyl-piperazinyl)-1-(4-amidrazono)benzyl-2-oxoethyl]amide] | 280
N=C(NN)c1ccc(C[C@H](NS(=O)(=O)c2ccc3ccccc3c2)C(=O)N2CCN(CCO)CC2)cc1 [Example 57, (S)-naphthalene-2-sulfonic acid [1-(4-amidrazono)benzyl-2-oxo-2-[4-(2-hydroxyethyl)-piperazinyl]-ethyl]amide] | 88

More lines, now with the values ahead:

Ki [nM] | Structure (SMILES)
345 | N=C(NN)c1ccc(C[C@H](NS(=O)(=O)c2ccc3ccccc3c2)C(=O)N(CCOCc2ccccc2)C2CCCC2)cc1 [Example 4, (S)-N-cyclopentyl-N-(2-benzyloxyethyl)-3-(4-amidrazonophenyl)-2-(2-naphthylsulfonylamino)propionamide]
4.35 | CCN(C(=O)[C@H](Cc1ccc(C(=N)NN)cc1)NS(=O)(=O)c1ccc2ccccc2c1)C1CCCC1 [Example 6, (S)-N-cyclopentyl-N-ethyl-3-(4-amidrazonophenyl)-2-(2-naphthylsulfonylamino)propionamide]
227 | COc1cc(C)c(S(=O)(=O)N[C@@H](Cc2ccc(C(=N)NN)cc2)C(=O)N(C)C2CCCC2)c(C)c1C [Example 9, (S)-N-cyclopentyl-N-methyl-3-(4-amidrazonophenyl)-2-[(4-methoxy-2,3,6-trimethylbenzene)sulfonylamino]propionamide]
11 | CN(C)c1cccc2c(S(=O)(=O)N[C@@H](Cc3ccc(C(=N)NN)cc3)C(=O)N(C)C3CCCC3)cccc12 [Example 18, (S)-3-[4-(amidrazono)-phenyl]-N-cyclopentyl-N-methyl-2-(5-dimethylamino-naphthalene-1-sulfonylamino)-propionamide]
17 | CN(C(=O)[C@H](Cc1ccc(C(=N)NN)cc1)NS(=O)(=O)c1cccc2ccccc12)C1CCCC1 [Example 22, (S)-3-[4-(amidrazono)-phenyl]-N-cyclopentyl-N-methyl-2-(naphthalene-1-sulfonylamino)-propionamide]
20100 | CN(C(=O)[C@H](Cc1ccc(C(=N)NN)cc1)NC(=O)COc1ccc2ccccc2c1)C1CCCC1 [Example 24, (S)-3-[4-(amidrazono)-phenyl]-N-cyclopentyl-N-methyl-2-[2-(naphthalene-2-yl-oxy)acetylamino]-propionamide]
259 | COC(=O)CN(C)C(=O)[C@H](Cc1ccc(C(=N)NN)cc1)NS(=O)(=O)c1ccc2ccccc2c1 [Example 25, {[3-(4-amidrazono-phenyl)-(S)-2-(naphthalene-2-sulfonylamino)-propionyl]-methyl-amino}-acetic acid methyl ester]
89 | COC(=O)[C@@H](C)N(C)C(=O)[C@H](Cc1ccc(C(=N)NN)cc1)NS(=O)(=O)c1ccc2ccccc2c1 [Example 29, (R)-2-{[3-(4-amidrazono-phenyl)-(S)-2-(naphthalene-2-sulfonylamino)-propionyl]-methyl-amino}-propionic acid methyl ester]
612 | COC(=O)CCCN(C)C(=O)[C@H](Cc1ccc(C(=N)NN)cc1)NS(=O)(=O)c1ccc2ccccc2c1 [Example 35, 4-{[3-(4-amidrazono-phenyl)-(S)-2-(naphthalene-2-sulfonylamino)-propionyl]-methyl-amino}-butyric acid methyl ester]
13 | COC(=O)[C@H]1CCCCN1C(=O)[C@H](Cc1ccc(C(=N)NN)cc1)NS(=O)(=O)c1ccc2ccccc2c1 [Example 48, 1-[3-(4-amidrazono-phenyl)-(S)-2-(naphthalene-2-sulfonylamino)-propionyl]-piperidine-(R)-2-carboxylic acid methyl ester]
9130 | CCOc1ccccc1N1CCN(C(=O)[C@H](Cc2ccc(C(=N)NN)cc2)NS(=O)(=O)c2ccc3ccccc3c2)CC1 [Example 58, (S)-naphthalene-2-sulfonic acid [1-(4-amidrazono)benzyl-2-oxo-2-[4-(2-ethoxyphenyl)-piperazinyl]-ethyl]amide]

biological target: T1, trypsin (Bos taurus, UniProt P00760); test: biochemical; type: biochemical; conditions: 20 μM substrate; read-out: Inhibitory activity for trypsin, Ki
T1 sequence (P00760 24-246): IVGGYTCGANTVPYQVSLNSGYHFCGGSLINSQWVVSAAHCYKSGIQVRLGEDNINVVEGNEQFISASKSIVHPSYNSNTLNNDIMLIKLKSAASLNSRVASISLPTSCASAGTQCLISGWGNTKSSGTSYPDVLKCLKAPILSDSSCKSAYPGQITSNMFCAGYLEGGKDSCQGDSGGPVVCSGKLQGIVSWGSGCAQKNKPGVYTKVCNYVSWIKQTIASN
Method: To identify the selectivity for thrombin over trypsin of the compound of the present invention, the inhibitory activity for trypsin of the compound of formula (I) is measured as Ki value according to the same method as the above method for determination of thrombin inhibitory activity, and then the ratio of the activity for trypsin to the activity for thrombin is calculated. In this case, the procedure for determination of inhibitory activity for trypsin is substantially identical to that for thrombin, except that N-benzoyl-Val-Gly-Arg para-nitroanilide hydrochloride is used as the substrate.
As the substrate 20μM solution of N-benzoyl-Val-Gly-Arg-p-nitroanilide hydrochloride was used, and the inhibitor was used in various concnetrations within the range of […]. In addition, trypsin was dissolved in 0.1N HCl, adjusted to the concentration of 45 μg/ml with the said tris buffered solution just before the experiment, and then used in an amount of 40μl. As in the experiment for thrombin, a total volume of the reaction solution was 1.5 ml and the remaining procedure was conducted in the same manner.

Ki [nM] | Structure (SMILES)
363000 | CNC(=N)c1ccc(C[C@H](NS(=O)(=O)c2ccc3ccccc3c2)C(=O)N(C)C2CCCC2)cc1 [Example 7, (S)-N-cyclopentyl-N-methyl-3-[4-(methylamidino)phenyl]-2-(2-naphthylsulfonylamino)propionamide]
3980 | CN(C)c1cccc2c(S(=O)(=O)N[C@@H](Cc3ccc(C(=N)NN)cc3)C(=O)N(C)C3CCCC3)cccc12 [Example 18, (S)-3-[4-(amidrazono)-phenyl]-N-cyclopentyl-N-methyl-2-(5-dimethylamino-naphthalene-1-sulfonylamino)-propionamide]
